Results taken from patent US5567704A, “R-enatiomerically pure hydroxylated xanthine compounds to treat baldness” (priority 1995, dated 1996).

Tests used:
[1] = test system: Balb/c mice given a lethal dose of endotoxin; experiment: endotoxin induced lethality in mice (survival); format: in vivo, mouse; conditions: for cumulative percent survival: 72 hours post LPS
Experimental: (§1) Animals were treated with 10 μg/gm of LPS (i.v.) Immediately following the LPS (t=0), 2 hrs after the LPS (t=2) or 4 hrs following LPS (t=4) the mice were treated with their first treatment of CT1501R (100 mg/kg, i.p.). The mice were treated with CT1501R three times per day thereafter, and animal survival was monitored.
(§2) This example illustrates the effect of CT1501R on survival in mice given a lethal dose of endotoxin. We determined if CT1501R protects against endotoxin induced lethality in a murine model. Septic shock was modeled by endotoxin injection of 6-8 week old female Balb/c mice similar to previously published reports (Ashkenazi et al. Proc. Natl. Acad. Sci. U.S.A. 88: 10535-10539, 1991.) under protocols approved by the Animal Use Committee of the Biomembrane Institute, Seattle, Wash. Animals were injected intravaneously (i.v.) with an approximate LD100 dose (10 μg) of Salmonella abortus equi-derived endotoxin (Sigma Chemical Co., L-1887) in phosphate buffered saline (PBS). […] Control mice were injected at the same times with a similar volume of vehicle control (PBS). Survival was followed for at least 72 hours.
(§3) Ten mice were treated each with PBS alone or CT1501R alone on the same schedule as the experimental mice. […] Endotoxin survival data were summarized from a total of six (6) independent experiments. Summary Table 1 details the results of each of the six experiments. In FIG. 5, each time point represents a minimum of three (3) experiments comprising at least twenty (20) mice per group. A probability analysis of the survival data using a Fisher's Exact One Tailed Test is given as Table 3. Significant protection was conferred if CT1501R was administered immediately after the LPS treatment. The cumulative percent survival at 72 hours post LPS treatment was 60% compared to 7% for the LPS-only treated animals (p=<0.0005; Table 3).

[2] = endotoxin induced lethality in mice (survival); format: in vivo, mouse; conditions: mouse, in vivo, ip; CT1501R alone, no LPS, ten mice, same schedule
Experimental: as §1, §2, §3

[3] = test system: thymocytes; experiment: thymocyte costimulator assay (ConA and IL-1α or IL-2); format: cell-based, mice; conditions: drug added two hours prior, FIG. 3
Experimental: A thymocyte costimulator assay is conducted to evaluate the inventive compounds to inhibit activation and proliferation of thymocytes caused by stimulation with Con A and interleukin-1 (IL-1), or […]. Thymuses are obtained from mice (e.g., female Balb/C mice) and the thymuses are removed and dissociated into culture media (e.g., RPMI 1640 without serum supplementation). The dissociated thymus tissue and cell suspension is transferred to centrifuge tubes and allowed to settle, washed with HBSS and resuspended in serum-supplemented culture media (e.g., RPMI 1640 with 10% fetal calf serum). Any contaminating red cells are lysed, and viable cells are resuspended and counted. Thymocytes are plated (e.g., 96-well plates at a density of 2×10^5 cells/well) and a stimulating agent, such as Con A, IL-1 (e.g., IL-1α) or IL-2 is added to the well. The cells are incubated for 4 days at 37° C. On the fourth day, the cells are pulsed with tritiated thymidine and cell proliferation determined. Inventive compounds are added at the time of stimulating agent addition.
CT1501R was added to the cells at the doses indicated two hours prior to activation with ConA and IL-1α or IL-2. Background counts were less than 200 cpm.

Question: What does the source list for `C[C@@H](O)CCCCn1c(=O)c2c(ncn2C)n(C)c1=O` [CT1501R, (R)-1-(5-hydroxyhexyl)-3,7-dimethylxanthine]?
Answer: cumulative percent survival ([1]; CT1501R four hours after LPS): 37%; cumulative percent survival ([1]; CT1501R immediately after LPS): 60%; cumulative percent survival ([1]; CT1501R two hours after LPS): 55%; adverse effects ([1]; CT1501R alone, no LPS, ten mice, same schedule): no adverse effects noted; Survival (Number Surviving/Total) ([1]; Expt. 1, CT-1501R t = 0 Hr post LPS, 24 Hr post LPS): 4/5; Survival (Number Surviving/Total) ([1]; Expt. 1, CT-1501R t = 0 Hr post LPS, 48 Hr post LPS): 4/5; Survival (Number Surviving/Total) ([1]; Expt. 1, CT-1501R t = 0 Hr post LPS, 72 Hr post LPS): 4/5; Survival (Number Surviving/Total) ([1]; Expt. 1, CT-1501R t = 2 Hr post LPS, 24 Hr post LPS): 4/5; Survival (Number Surviving/Total) ([1]; Expt. 1, CT-1501R t = 2 Hr post LPS, 48 Hr post LPS): 3/5; Survival (Number Surviving/Total) ([1]; Expt. 1, CT-1501R t = 2 Hr post LPS, 72 Hr post LPS): 3/5; Survival (Number Surviving/Total) ([1]; Expt. 2, CT-1501R t = 0 Hr post LPS, 24 Hr post LPS): 5/5; Survival (Number Surviving/Total) ([1]; Expt. 2, CT-1501R t = 0 Hr post LPS, 48 Hr post LPS): 5/5; Survival (Number Surviving/Total) ([1]; Expt. 2, CT-1501R t = 0 Hr post LPS, 72 Hr post LPS): 5/5; Survival (Number Surviving/Total) ([1]; Expt. 2, CT-1501R t = 2 Hr post LPS, 24 Hr post LPS): 5/5; Survival (Number Surviving/Total) ([1]; Expt. 2, CT-1501R t = 2 Hr post LPS, 48 Hr post LPS): 5/5; Survival (Number Surviving/Total) ([1]; Expt. 2, CT-1501R t = 2 Hr post LPS, 72 Hr post LPS): 5/5; Survival (Number Surviving/Total) ([1]; Expt. 3, CT-1501R t = 4 Hr post LPS, 24 Hr post LPS): 5/5; Survival (Number Surviving/Total) ([1]; Expt. 3, CT-1501R t = 4 Hr post LPS, 48 Hr post LPS): 3/5; Survival (Number Surviving/Total) ([1]; Expt. 3, CT-1501R t = 4 Hr post LPS, 72 Hr post LPS): 3/5; Survival (Number Surviving/Total) ([1]; Expt. 4, CT-1501R t = 4 Hr post LPS, 24 Hr post LPS): 7/10; Survival (Number Surviving/Total) ([1]; Expt. 4, CT-1501R t = 4 Hr post LPS, 48 Hr post LPS): 5/10; Survival (Number Surviving/Total) ([1]; Expt. 4, CT-1501R t = 4 Hr post LPS, 72 Hr post LPS): 5/10; Survival (Number Surviving/Total) ([1]; Expt. 5, CT-1501R t = 0 Hr post LPS, 24 Hr post LPS): 9/10; Survival (Number Surviving/Total) ([1]; Expt. 5, CT-1501R t = 0 Hr post LPS, 48 Hr post LPS): 7/10; Survival (Number Surviving/Total) ([1]; Expt. 5, CT-1501R t = 0 Hr post LPS, 72 Hr post LPS): 3/10; Survival (Number Surviving/Total) ([1]; Expt. 5, CT-1501R t = 2 Hr post LPS, 24 Hr post LPS): 5/10; Survival (Number Surviving/Total) ([1]; Expt. 5, CT-1501R t = 2 Hr post LPS, 48 Hr post LPS): 3/10; Survival (Number Surviving/Total) ([1]; Expt. 5, CT-1501R t = 2 Hr post LPS, 72 Hr post LPS): 3/10; Survival (Number Surviving/Total) ([1]; Expt. 5, CT-1501R t = 4 Hr post LPS, 24 Hr post LPS): 7/10; Survival (Number Surviving/Total) ([1]; Expt. 5, CT-1501R t = 4 Hr post LPS, 48 Hr post LPS): 4/10; Survival (Number Surviving/Total) ([1]; Expt. 5, CT-1501R t = 4 Hr post LPS, 72 Hr post LPS): 2/10; Survival (Number Surviving/Total) ([1]; Expt. 6, CT-1501R t = 4 Hr post LPS, 24 Hr post LPS): 3/10; Survival (Number Surviving/Total) ([1]; Expt. 6, CT-1501R t = 4 Hr post LPS, 48 Hr post LPS): 3/10; Survival (Number Surviving/Total) ([1]; Expt. 6, CT-1501R t = 4 Hr post LPS, 72 Hr post LPS): 3/10; survival compared with published results of Genentech's bifunctional TNF receptor ([1]; drug simultaneously or two hours after lethal LPS, FIGS. 15 and 16): consistently was better at improving survival than Genentech's TNF receptor; Cumulative survival (Number Surviving/Total) ([1]; n = 3 expts, CT-1501R t = 0 Hr post LPS, 24 Hr post LPS): 18/20; Cumulative survival (Number Surviving/Total) ([1]; n = 3 expts, CT-1501R t = 0 Hr post LPS, 48 Hr post LPS): 16/20; Cumulative survival (Number Surviving/Total) ([1]; n = 3 expts, CT-1501R t = 0 Hr post LPS, 72 Hr post LPS): 12/20; Cumulative survival (Number Surviving/Total) ([1]; n = 3 expts, CT-1501R t = 2 Hr post LPS, 24 Hr post LPS): 14/20; Cumulative survival (Number Surviving/Total) ([1]; n = 3 expts, CT-1501R t = 2 Hr post LPS, 48 Hr post LPS): 11/20; Cumulative survival (Number Surviving/Total) ([1]; n = 3 expts, CT-1501R t = 2 Hr post LPS, 72 Hr post LPS): 11/20; Cumulative survival (Number Surviving/Total) ([1]; n = 4 expts, CT-1501R t = 4 Hr post LPS, 24 Hr post LPS): 22/35; Cumulative survival (Number Surviving/Total) ([1]; n = 4 expts, CT-1501R t = 4 Hr post LPS, 48 Hr post LPS): 15/35; Cumulative survival (Number Surviving/Total) ([1]; n = 4 expts, CT-1501R t = 4 Hr post LPS, 72 Hr post LPS): 13/35; survival [2]: 100%; inhibition of thymocyte proliferation [3]: inhibited thymocyte proliferation in a dose-response manner
